From patent US11629143B2, “HipK4 inhibitors and uses thereof” (Vibliome Therapeutics, LLC, priority 2020, dated 2023) come the findings set out here.

Common to all, as to assay: Kinase panel (mobility shift)
Holding throughout (assay type): biochemical

For one assay, the target named is SRC (Homo sapiens, UniProt P12931). Put shortly:
(§1)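 Compound at 5 um + kinase + fluor-labeled substrate, standardized mix; rxn stopped; electrophoretic separation of product/substrate on chip; activity = product vs substrate peak fluorescence. Bins A ≥95%, B 90-94%, C 80-89%.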

In a further assay the target is T1, MER (Homo sapiens, UniProt Q12866).
T1 sequence (Q12866 21-999): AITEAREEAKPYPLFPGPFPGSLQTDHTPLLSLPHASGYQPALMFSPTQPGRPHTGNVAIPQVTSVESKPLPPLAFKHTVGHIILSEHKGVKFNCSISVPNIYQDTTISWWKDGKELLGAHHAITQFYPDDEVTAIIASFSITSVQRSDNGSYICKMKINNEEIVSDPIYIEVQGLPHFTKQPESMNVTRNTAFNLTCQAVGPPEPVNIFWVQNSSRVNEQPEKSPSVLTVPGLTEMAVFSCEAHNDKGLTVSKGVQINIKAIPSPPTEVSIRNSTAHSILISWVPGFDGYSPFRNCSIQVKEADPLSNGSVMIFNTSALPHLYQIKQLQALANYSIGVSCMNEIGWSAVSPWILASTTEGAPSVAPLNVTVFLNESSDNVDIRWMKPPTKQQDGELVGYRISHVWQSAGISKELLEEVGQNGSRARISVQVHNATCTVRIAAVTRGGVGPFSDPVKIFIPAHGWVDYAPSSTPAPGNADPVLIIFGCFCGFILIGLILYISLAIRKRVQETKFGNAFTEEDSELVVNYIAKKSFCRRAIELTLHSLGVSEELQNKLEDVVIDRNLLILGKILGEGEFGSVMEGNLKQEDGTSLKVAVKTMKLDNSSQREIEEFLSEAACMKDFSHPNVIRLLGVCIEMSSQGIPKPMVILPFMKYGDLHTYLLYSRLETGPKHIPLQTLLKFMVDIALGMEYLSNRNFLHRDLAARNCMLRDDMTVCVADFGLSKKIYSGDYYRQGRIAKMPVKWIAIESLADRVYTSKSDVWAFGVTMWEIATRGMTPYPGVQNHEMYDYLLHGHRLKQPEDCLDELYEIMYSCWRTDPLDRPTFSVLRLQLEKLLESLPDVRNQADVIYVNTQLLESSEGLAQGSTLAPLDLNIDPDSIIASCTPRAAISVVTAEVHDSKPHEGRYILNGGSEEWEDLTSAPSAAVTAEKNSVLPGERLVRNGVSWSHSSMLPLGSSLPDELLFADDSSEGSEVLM
Put shortly: as §1

Another assay concerns the target PDGFR-b (Homo sapiens, UniProt P09619). Put shortly:
as §1

For a further assay, the target named is TRKB (Homo sapiens, UniProt Q16620). The gist of the method:
as §1

The next assay has as its target T2, TAOK3 (Homo sapiens, UniProt Q9H2K8).
T2 sequence (Q9H2K8 1-898): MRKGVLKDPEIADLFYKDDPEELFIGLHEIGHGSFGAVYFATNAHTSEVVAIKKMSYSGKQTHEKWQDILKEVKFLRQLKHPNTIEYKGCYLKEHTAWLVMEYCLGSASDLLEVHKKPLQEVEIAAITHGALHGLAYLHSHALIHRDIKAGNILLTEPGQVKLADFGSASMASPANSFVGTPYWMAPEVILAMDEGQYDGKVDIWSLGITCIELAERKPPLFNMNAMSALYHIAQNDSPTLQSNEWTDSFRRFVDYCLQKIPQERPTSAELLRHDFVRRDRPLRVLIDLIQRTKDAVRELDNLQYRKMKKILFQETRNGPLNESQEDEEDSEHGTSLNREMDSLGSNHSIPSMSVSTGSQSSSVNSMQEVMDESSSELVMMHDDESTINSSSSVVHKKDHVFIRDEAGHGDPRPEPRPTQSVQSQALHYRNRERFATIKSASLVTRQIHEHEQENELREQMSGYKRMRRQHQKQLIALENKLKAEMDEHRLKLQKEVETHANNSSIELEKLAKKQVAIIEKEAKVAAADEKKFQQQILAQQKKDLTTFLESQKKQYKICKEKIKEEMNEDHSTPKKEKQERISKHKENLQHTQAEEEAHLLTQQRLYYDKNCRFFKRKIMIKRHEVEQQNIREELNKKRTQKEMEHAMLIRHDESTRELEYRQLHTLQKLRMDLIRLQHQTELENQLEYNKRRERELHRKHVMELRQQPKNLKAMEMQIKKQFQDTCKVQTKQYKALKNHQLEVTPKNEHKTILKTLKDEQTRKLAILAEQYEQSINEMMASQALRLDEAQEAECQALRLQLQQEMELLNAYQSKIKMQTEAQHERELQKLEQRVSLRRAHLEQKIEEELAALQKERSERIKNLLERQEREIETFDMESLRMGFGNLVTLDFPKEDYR
Put shortly: as §1

The target in another assay is RIPK2 (Homo sapiens, UniProt O43353). The gist of the method: as §1
Chain of RIPK2 (O43353 whole entry, species assumed): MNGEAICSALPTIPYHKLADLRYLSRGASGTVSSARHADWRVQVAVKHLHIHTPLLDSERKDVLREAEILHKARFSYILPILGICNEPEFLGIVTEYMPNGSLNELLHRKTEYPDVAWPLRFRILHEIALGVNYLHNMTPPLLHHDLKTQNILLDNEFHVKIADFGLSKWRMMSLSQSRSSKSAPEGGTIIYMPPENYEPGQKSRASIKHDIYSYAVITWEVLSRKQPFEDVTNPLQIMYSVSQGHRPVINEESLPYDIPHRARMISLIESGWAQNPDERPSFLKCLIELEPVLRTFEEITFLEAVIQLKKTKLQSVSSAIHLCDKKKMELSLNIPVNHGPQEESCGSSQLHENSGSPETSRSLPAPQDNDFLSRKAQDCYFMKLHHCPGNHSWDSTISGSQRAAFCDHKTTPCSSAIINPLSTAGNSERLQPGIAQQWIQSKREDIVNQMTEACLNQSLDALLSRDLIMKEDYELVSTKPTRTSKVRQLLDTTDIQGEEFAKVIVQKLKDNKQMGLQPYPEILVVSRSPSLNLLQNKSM

Some results are limits rather than exact numbers.

Chain of SRC (P12931 whole entry, species assumed): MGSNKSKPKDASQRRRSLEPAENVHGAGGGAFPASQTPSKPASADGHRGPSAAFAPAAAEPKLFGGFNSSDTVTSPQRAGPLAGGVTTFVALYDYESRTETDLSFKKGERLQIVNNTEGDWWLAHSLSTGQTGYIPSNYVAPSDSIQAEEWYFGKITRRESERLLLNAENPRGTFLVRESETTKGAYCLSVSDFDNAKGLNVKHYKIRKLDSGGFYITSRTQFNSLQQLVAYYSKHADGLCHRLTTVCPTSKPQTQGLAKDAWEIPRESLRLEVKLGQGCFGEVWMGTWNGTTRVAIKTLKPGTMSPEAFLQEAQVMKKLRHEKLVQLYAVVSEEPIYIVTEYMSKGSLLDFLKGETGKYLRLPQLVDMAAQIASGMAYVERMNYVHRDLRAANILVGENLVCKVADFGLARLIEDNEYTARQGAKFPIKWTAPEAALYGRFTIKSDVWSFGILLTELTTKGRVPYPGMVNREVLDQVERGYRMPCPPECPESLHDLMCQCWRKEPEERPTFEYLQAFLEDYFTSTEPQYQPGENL
Chain of TRKB (Q16620 32-822, species assumed): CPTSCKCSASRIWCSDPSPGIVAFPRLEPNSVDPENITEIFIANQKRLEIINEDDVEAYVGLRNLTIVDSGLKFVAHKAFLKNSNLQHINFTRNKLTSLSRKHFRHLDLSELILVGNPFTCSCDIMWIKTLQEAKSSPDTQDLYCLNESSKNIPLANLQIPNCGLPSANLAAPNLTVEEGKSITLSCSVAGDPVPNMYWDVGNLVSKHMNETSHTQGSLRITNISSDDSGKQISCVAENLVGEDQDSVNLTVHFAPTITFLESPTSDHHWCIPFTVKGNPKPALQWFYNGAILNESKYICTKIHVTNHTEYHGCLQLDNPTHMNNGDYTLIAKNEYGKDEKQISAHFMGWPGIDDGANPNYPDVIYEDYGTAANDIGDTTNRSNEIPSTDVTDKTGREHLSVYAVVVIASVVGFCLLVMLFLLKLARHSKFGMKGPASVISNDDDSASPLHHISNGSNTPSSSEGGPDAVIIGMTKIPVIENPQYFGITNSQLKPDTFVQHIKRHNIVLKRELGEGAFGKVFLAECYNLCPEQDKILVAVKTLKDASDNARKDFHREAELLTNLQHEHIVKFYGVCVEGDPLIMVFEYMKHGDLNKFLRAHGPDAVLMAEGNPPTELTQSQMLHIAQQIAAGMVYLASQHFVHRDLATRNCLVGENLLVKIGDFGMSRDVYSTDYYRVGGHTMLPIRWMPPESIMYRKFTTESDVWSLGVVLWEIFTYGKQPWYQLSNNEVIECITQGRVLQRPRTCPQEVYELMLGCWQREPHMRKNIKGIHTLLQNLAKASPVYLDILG
Chain of PDGFR-b (P09619 33-1106, species assumed): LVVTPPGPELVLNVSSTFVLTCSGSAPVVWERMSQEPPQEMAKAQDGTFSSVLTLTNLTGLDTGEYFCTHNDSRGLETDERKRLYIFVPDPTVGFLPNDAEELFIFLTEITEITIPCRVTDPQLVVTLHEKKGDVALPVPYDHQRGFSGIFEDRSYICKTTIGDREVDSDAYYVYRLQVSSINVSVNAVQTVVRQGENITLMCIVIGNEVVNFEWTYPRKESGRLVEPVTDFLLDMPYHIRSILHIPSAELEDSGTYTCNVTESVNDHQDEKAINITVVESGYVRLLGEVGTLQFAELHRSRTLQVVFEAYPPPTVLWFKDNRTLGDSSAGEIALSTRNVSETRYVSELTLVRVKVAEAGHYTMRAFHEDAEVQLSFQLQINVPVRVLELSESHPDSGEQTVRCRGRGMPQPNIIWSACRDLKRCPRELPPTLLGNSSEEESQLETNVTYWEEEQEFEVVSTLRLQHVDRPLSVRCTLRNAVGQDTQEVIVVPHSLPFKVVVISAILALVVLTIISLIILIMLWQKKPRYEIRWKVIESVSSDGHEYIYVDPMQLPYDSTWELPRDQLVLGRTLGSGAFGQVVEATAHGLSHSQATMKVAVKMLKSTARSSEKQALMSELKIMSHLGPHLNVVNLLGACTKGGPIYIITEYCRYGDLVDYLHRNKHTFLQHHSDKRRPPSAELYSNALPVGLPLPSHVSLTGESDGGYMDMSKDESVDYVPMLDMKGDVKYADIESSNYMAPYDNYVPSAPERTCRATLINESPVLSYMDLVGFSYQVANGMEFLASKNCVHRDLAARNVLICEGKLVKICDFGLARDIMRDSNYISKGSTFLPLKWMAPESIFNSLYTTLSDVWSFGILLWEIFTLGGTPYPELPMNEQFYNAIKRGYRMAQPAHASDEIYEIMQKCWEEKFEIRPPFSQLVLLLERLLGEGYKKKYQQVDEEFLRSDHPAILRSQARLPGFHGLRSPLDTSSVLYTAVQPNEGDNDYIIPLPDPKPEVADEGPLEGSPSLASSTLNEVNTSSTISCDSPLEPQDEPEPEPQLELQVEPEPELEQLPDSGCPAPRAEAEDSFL

As usually defined, the inhibition is the share of the control response that was lost under treatment. As to `CNC(=O)c1cc(Oc2ccc(NC(=O)c3nc(OC)oc3-c3ccc(F)s3)cc2F)ccn1` [Compound 25], the inhibition at 5 µM at SRC, on MER, on PDGFR-b, at TRKB, at TAOK3 and at RIPK2 was less than 50% throughout.
With `CNC(=O)c1cc(Oc2ccc(NC(=O)c3nc(C4CC4)oc3-c3ccc(F)cc3)cc2F)ccn1` [Compound 26], the inhibition at 5 µM was 50 to 79% at SRC; 80 to 89% on MER; less than 50% at PDGFR-b; 50 to 79% at TRKB; 80 to 89% on TAOK3; 80 to 89% at RIPK2.
In the case of `CSc1nc(C(=O)Nc2ccc(Oc3ccnc(C(=O)NC4CNC4)c3)c(F)c2)c(-c2ccc(F)s2)o1` [Compound 27], the inhibition at 5 µM on SRC, at MER, at PDGFR-b, on TRKB, at TAOK3 and at RIPK2 was less than 50% each time.
With `CSc1nc(C(=O)Nc2ccc(Oc3ccnc(C(=O)NC4COC4)c3)c(F)c2)c(-c2ccc(F)s2)o1` [Compound 28], the inhibition at 5 µM at SRC, at MER, on PDGFR-b, on TRKB, at TAOK3 and on RIPK2 was less than 50% each time.
Consider `CSc1nc(C(=O)Nc2ccc(Oc3ccnc(C(=O)NC4CNC4)c3)c(F)c2)c(-c2ccc(F)cc2)o1` [Compound 29], for which the inhibition at 5 µM at SRC is less than 50%; at MER, 50 to 79%; at PDGFR-b, less than 50%; at TRKB, less than 50%; on TAOK3, 50 to 79%; on RIPK2, 80 to 89%.
For the compound `CNC(=O)c1cc(Oc2ccc(NC(=O)c3nc(COC)oc3-c3ccc(F)cc3)cc2F)ccn1` [Compound 30], the inhibition at 5 µM at SRC is 50 to 79%; at MER, 80 to 89%; on PDGFR-b, less than 50%; on TRKB, 80 to 89%; at TAOK3, 80 to 89%; at RIPK2, 80 to 89%.
For `CSc1nc(C(=O)Nc2ccc(Oc3ccnc(C(=O)NC4COC4)c3)c(F)c2)c(-c2ccc(F)cc2)o1` [Compound 31], the inhibition at 5 µM on SRC was less than 50%; at MER, less than 50%; at PDGFR-b it was less than 50%; on TRKB, less than 50%; at TAOK3, less than 50%; on RIPK2, 50 to 79%.
As to `CNC(=O)c1cc(Oc2ccc(NC(=O)c3nc(OC4CC4)oc3-c3ccc(F)cc3)cc2F)ccn1` [Compound 32], the inhibition at 5 µM on SRC is 50 to 79%; at MER, 80 to 89%; on PDGFR-b, less than 50%; on TRKB it was less than 50%; at TAOK3, 50 to 79%; on RIPK2 it was 50 to 79%.
`[2H]C([2H])([2H])NC(=O)c1cc(Oc2ccc(NC(=O)c3nc(SC)oc3-c3ccc(F)c(F)c3)cc2F)ccn1` [Compound 33]: the inhibition at 5 µM on SRC is less than 50%; on MER it was less than 50%; at PDGFR-b it was less than 50%; at TRKB, less than 50%; at TAOK3, 50 to 79%; on RIPK2, 50 to 79%.
On to `CNC(=O)c1cc(Oc2ccc(NC(=O)c3nc(SC(C)C)oc3-c3ccc(F)cc3)cc2F)ccn1` [Compound 34], for which the inhibition at 5 µM was 80 to 89% on SRC; 90 to 94% at MER; less than 50% at PDGFR-b; 50 to 79% on TRKB; 80 to 89% at TAOK3; 50 to 79% at RIPK2.
As to `[2H]C([2H])([2H])NC(=O)c1cc(Oc2ccc(NC(=O)c3nc(SC)oc3-c3ccc(F)s3)cc2F)ccn1` [Compound 35], the inhibition at 5 µM is less than 50% at SRC; less than 50% on MER; less than 50% on PDGFR-b; less than 50% at TRKB; less than 50% on TAOK3; 50 to 79% at RIPK2.
Turning to `CNC(=O)c1ccc(Oc2ccc(NC(=O)c3nc(Cl)oc3-c3ccc(F)cc3)c(F)c2)cn1` [Compound 36], the inhibition at 5 µM on SRC was less than 50%; on MER, less than 50%; on PDGFR-b, less than 50%; on TRKB it was less than 50%; at TAOK3, less than 50%; at RIPK2, 50 to 79%.
In the case of `CSc1nc(C(=O)Nc2ccc(Oc3ccnc(C(=O)NC4COC4)c3)c(F)c2)c(-c2ccc(F)c(F)c2)o1` [Compound 37], the inhibition at 5 µM at SRC, at MER, on PDGFR-b, on TRKB, at TAOK3 and at RIPK2 was less than 50% in each case.
As to `CNC(=O)c1cc(Oc2ccc(NC(=O)c3nc(OCC(F)(F)F)oc3-c3ccc(F)cc3)cc2F)ccn1` [Compound 38], the inhibition at 5 µM on SRC was 50 to 79%; on MER, 80 to 89%; at PDGFR-b, less than 50%; at TRKB it was less than 50%; at TAOK3, less than 50%; on RIPK2, 50 to 79%.
Turning to `COc1nc(C(=O)Nc2ccc(Oc3ccnc(C(=O)NC4COC4)c3)c(F)c2)c(-c2ccc(F)cc2)o1` [Compound 39], the inhibition at 5 µM at SRC was less than 50%; at MER, less than 50%; at PDGFR-b it was less than 50%; on TRKB, less than 50%; at TAOK3, less than 50%; at RIPK2, 50 to 79%.
Regarding `CSc1nc(C(=O)Nc2ccc(Oc3ccnc(C(=O)NCC(F)(F)F)c3)c(F)c2)c(-c2ccc(F)cc2)o1` [Compound 40], the inhibition at 5 µM on SRC, on MER, at PDGFR-b, at TRKB, on TAOK3 and at RIPK2 was less than 50% throughout.
Turning to `CSc1nc(C(=O)Nc2ccc(Oc3ccnc(C(=O)NCCN(C)C)c3)c(F)c2)c(-c2ccc(F)cc2)o1` [Compound 41], the inhibition at 5 µM is less than 50% at SRC; 50 to 79% at MER; less than 50% at PDGFR-b; less than 50% at TRKB; 50 to 79% on TAOK3; 80 to 89% at RIPK2.
